Assay results from the NIST ThermoML archive (doi:10.1021/je5010214).
Numbers after ± are expanded uncertainties.

Conditions: Liquid, Vibrating tube method

CCCCCCC [heptane]
Conditions | mass density [kg/m3]
343.15 K, 47908 kPa | 688 ± 1
343.15 K, 50059 kPa | 689.668 ± 1.1
343.15 K, 52026 kPa | 691.103 ± 1.1
343.15 K, 59944 kPa | 696.69 ± 1.1
343.15 K, 61966 kPa | 697.921 ± 1.1
343.15 K, 65070 kPa | 699.939 ± 1.1
343.15 K, 66059 kPa | 700.533 ± 1.2
343.16 K, 34034 kPa | 676.976 ± 0.96
343.16 K, 54918 kPa | 693.158 ± 1.1
343.16 K, 57986 kPa | 695.23 ± 1.1
348.15 K, 100.3 kPa | 636.109 ± 0.82
348.15 K, 462.2 kPa | 636.505 ± 0.82
348.15 K, 859.8 kPa | 637.192 ± 0.82
348.15 K, 974.2 kPa | 637.393 ± 0.82
348.15 K, 1974.9 kPa | 638.781 ± 0.82
348.15 K, 3051.1 kPa | 640.295 ± 0.82
348.15 K, 5094 kPa | 643.002 ± 0.83
348.15 K, 10025 kPa | 649.256 ± 0.85
348.15 K, 14792 kPa | 654.622 ± 0.87
348.15 K, 20111 kPa | 660.386 ± 0.89
348.15 K, 22163 kPa | 662.539 ± 0.9
348.15 K, 28080 kPa | 668.108 ± 0.93
348.15 K, 30149 kPa | 670.002 ± 0.94
348.15 K, 32161 kPa | 671.799 ± 0.95
348.15 K, 32935 kPa | 672.452 ± 0.96
348.15 K, 33959 kPa | 673.504 ± 0.96
348.15 K, 35045 kPa | 674.428 ± 0.97
348.15 K, 37937 kPa | 676.834 ± 0.99
348.15 K, 40026 kPa | 678.502 ± 1
348.15 K, 45051 kPa | 682.511 ± 1
348.15 K, 47915 kPa | 684.825 ± 1
348.15 K, 49950 kPa | 686.336 ± 1.1
348.15 K, 52167 kPa | 688.088 ± 1.1
348.15 K, 55022 kPa | 690.168 ± 1.1
348.15 K, 57945 kPa | 692.261 ± 1.1
348.15 K, 62063 kPa | 695.106 ± 1.1
348.15 K, 64942 kPa | 696.91 ± 1.2
348.15 K, 66153 kPa | 697.788 ± 1.2
348.16 K, 291.7 kPa | 636.475 ± 0.82
348.16 K, 7050.2 kPa | 645.632 ± 0.84
348.16 K, 9003.2 kPa | 648.038 ± 0.84
348.16 K, 12187 kPa | 651.83 ± 0.86
348.16 K, 17899 kPa | 658.098 ± 0.88
348.16 K, 25100 kPa | 665.329 ± 0.92
348.16 K, 32942 kPa | 672.463 ± 0.96
348.16 K, 42066 kPa | 680.23 ± 1
348.16 K, 60030 kPa | 693.748 ± 1.1
353.15 K, 100.5 kPa | 631.649 ± 0.82
353.15 K, 336 kPa | 631.995 ± 0.82
353.15 K, 572.6 kPa | 632.233 ± 0.82
353.15 K, 926 kPa | 632.774 ± 0.82
353.15 K, 1016.4 kPa | 632.95 ± 0.82
353.15 K, 2992.1 kPa | 635.919 ± 0.82
353.15 K, 4963.9 kPa | 638.644 ± 0.83
353.15 K, 7000.9 kPa | 641.284 ± 0.84
353.15 K, 9062.3 kPa | 643.911 ± 0.84
353.15 K, 10005 kPa | 645.176 ± 0.85
353.15 K, 12128 kPa | 647.788 ± 0.86
353.15 K, 14954 kPa | 651.028 ± 0.87
353.15 K, 17977 kPa | 654.406 ± 0.88
353.15 K, 19937 kPa | 656.492 ± 0.89
353.15 K, 21894 kPa | 658.507 ± 0.9
353.15 K, 24908 kPa | 661.562 ± 0.92
353.15 K, 27850 kPa | 664.482 ± 0.93
353.15 K, 29936 kPa | 666.345 ± 0.94
353.15 K, 31876 kPa | 668.022 ± 0.95
353.15 K, 32911 kPa | 668.934 ± 0.96
353.15 K, 32961 kPa | 669.075 ± 0.96
353.15 K, 34945 kPa | 670.985 ± 0.97
353.15 K, 37913 kPa | 673.509 ± 0.99
353.15 K, 40143 kPa | 675.336 ± 1
353.15 K, 42067 kPa | 677.003 ± 1
353.15 K, 45002 kPa | 679.292 ± 1
353.15 K, 48029 kPa | 681.775 ± 1.1
353.15 K, 50145 kPa | 683.478 ± 1.1
353.15 K, 52082 kPa | 685.052 ± 1.1
353.15 K, 55132 kPa | 687.213 ± 1.1
353.15 K, 57980 kPa | 689.013 ± 1.1
353.15 K, 60098 kPa | 690.731 ± 1.1
353.15 K, 65063 kPa | 694.154 ± 1.2
353.16 K, 2113.4 kPa | 634.631 ± 0.82
353.16 K, 33964 kPa | 670.126 ± 0.97
353.16 K, 62042 kPa | 692.223 ± 1.1
353.16 K, 66024 kPa | 694.802 ± 1.2
358.15 K, 100.4 kPa | 626.935 ± 0.82
358.15 K, 264.1 kPa | 627.168 ± 0.82
358.15 K, 508.4 kPa | 627.316 ± 0.82
358.15 K, 926.8 kPa | 628.098 ± 0.82
358.15 K, 1013.9 kPa | 628.327 ± 0.82
358.15 K, 3021.2 kPa | 631.365 ± 0.82
358.15 K, 4930 kPa | 634.077 ± 0.83
358.15 K, 10073 kPa | 641.066 ± 0.85
358.15 K, 12137 kPa | 643.735 ± 0.86
358.15 K, 14905 kPa | 646.944 ± 0.87
358.15 K, 17965 kPa | 650.491 ± 0.88
358.15 K, 22175 kPa | 654.965 ± 0.91
358.15 K, 25059 kPa | 657.993 ± 0.92
358.15 K, 28035 kPa | 660.974 ± 0.94
358.15 K, 30002 kPa | 662.532 ± 0.95
358.15 K, 31978 kPa | 664.488 ± 0.96
358.15 K, 32793 kPa | 665.093 ± 0.96
358.15 K, 33039 kPa | 665.404 ± 0.96
358.15 K, 33850 kPa | 666.525 ± 0.97
358.15 K, 35026 kPa | 667.567 ± 0.98
358.15 K, 37872 kPa | 669.996 ± 0.99
358.15 K, 40037 kPa | 671.748 ± 1
358.15 K, 42100 kPa | 673.454 ± 1
358.15 K, 47958 kPa | 678.424 ± 1.1
358.15 K, 50038 kPa | 680.129 ± 1.1
358.15 K, 52081 kPa | 681.85 ± 1.1
358.15 K, 55073 kPa | 684.059 ± 1.1
358.15 K, 57918 kPa | 685.685 ± 1.1
358.15 K, 60043 kPa | 687.68 ± 1.1
358.15 K, 62066 kPa | 689.111 ± 1.1
358.15 K, 64986 kPa | 691.283 ± 1.2
358.15 K, 66109 kPa | 692.023 ± 1.2
358.16 K, 2083.9 kPa | 629.903 ± 0.82
358.16 K, 6993.5 kPa | 637.086 ± 0.84
358.16 K, 9030.2 kPa | 639.755 ± 0.84
358.16 K, 20162 kPa | 652.87 ± 0.89
358.16 K, 45054 kPa | 675.954 ± 1
363.15 K, 104.1 kPa | 622.138 ± 0.82
363.15 K, 334 kPa | 622.474 ± 0.82
363.15 K, 601.7 kPa | 622.649 ± 0.82
363.15 K, 892.9 kPa | 623.267 ± 0.82
363.15 K, 1034.7 kPa | 623.668 ± 0.82
363.15 K, 1986 kPa | 625.081 ± 0.82
363.15 K, 2940.4 kPa | 626.678 ± 0.82
363.15 K, 4979.2 kPa | 629.757 ± 0.83
363.15 K, 9959.5 kPa | 636.563 ± 0.85
363.15 K, 11971 kPa | 639.421 ± 0.86
363.15 K, 14936 kPa | 642.887 ± 0.87
363.15 K, 17973 kPa | 646.544 ± 0.89
363.15 K, 19940 kPa | 648.708 ± 0.9
363.15 K, 24872 kPa | 654.024 ± 0.92
363.15 K, 27993 kPa | 657.078 ± 0.94
363.15 K, 30062 kPa | 659.006 ± 0.95
363.15 K, 31961 kPa | 660.63 ± 0.96
363.15 K, 33033 kPa | 661.606 ± 0.97
363.15 K, 33053 kPa | 661.633 ± 0.97
363.15 K, 34000 kPa | 663.017 ± 0.97
363.15 K, 35028 kPa | 664.03 ± 0.98
363.15 K, 37919 kPa | 666.495 ± 1
363.15 K, 39916 kPa | 668.059 ± 1
363.15 K, 42016 kPa | 669.917 ± 1
363.15 K, 47947 kPa | 675.063 ± 1.1
363.15 K, 50050 kPa | 676.807 ± 1.1
363.15 K, 52023 kPa | 678.457 ± 1.1
363.15 K, 54940 kPa | 680.815 ± 1.1
363.15 K, 57916 kPa | 682.78 ± 1.1
363.15 K, 59980 kPa | 684.625 ± 1.1
363.15 K, 62043 kPa | 686.168 ± 1.2
363.15 K, 64924 kPa | 688.267 ± 1.2
363.15 K, 66088 kPa | 689.169 ± 1.2
363.16 K, 6920.2 kPa | 632.642 ± 0.84
363.16 K, 8964.8 kPa | 635.395 ± 0.85
363.16 K, 21933 kPa | 650.806 ± 0.91
363.16 K, 44987 kPa | 672.551 ± 1
